Values quoted from earlier work as cited in paper PMC10649572 (International Journal of Molecular Sciences, 2023).
No end group written: not given here.

Target: T1, CaM^WT (Homo sapiens, UniProt P0DP23)
T1 construct: made in house; host or cells: Escherichia coli BL21-CodonPlus(DE3)
Conditions: in the presence and absence of Ca^2+; ref [38]

interaction with CaM: significant affinity
Sequence: LMRMLSLKSLKKQMKKV [Peptide F]
